Test system: B16/F1 murine melanoma
Format: in vivo, C57BL mice
Method: To the nape of the neck of 12 female C57BL mice, each weighing 18˜23 g, B16/F1 murine melanoma cells were injected at a density of 10^6 cells/mL. Two weeks later, the tumor was developed to a size of 0.5˜1 g. The ^177Lu-DOTA-Gly-Cyclic(Dap-Gln-His-dPhe-Arg-Trp-Asp)-Lys-Pro-Val-CONH2 prepared in Example 13 was injected to the mice at a dose of 5 μCi (1.6 μg in 100 μl of saline). 2, 4 and 24 hours later, the mice were sacrificed before organ excision.
For comparison for target selectivity, the mice that were injected with 2 μg of an unlabeled peptide 2 hours after the first injection and then with the radiolabeled peptide were used as a control.
The excised organs were analyzed for radioactivity using a gamma counter (1470 WIZARD Automatic Gamma Counter, PerkinElmer) and the results are plotted in FIG. 7.

receptor selectivity (concluded from tumor uptake with and without unlabeled peptide): high receptor selectivity
Substance: ^177Lu-labeled DOTA-Gly-cyclic(Dap-Glu-His-dPhe-Arg-Trp-Asp)-Lys-Pro-Val-CONH2 [Example 13]
tumor uptake in control injected with 2 μg of unlabeled peptide, compared with experimental groups (mouse, in vivo): lower tumor uptake
